In US20040077677A1, “Oral formulations” (Wyeth, priority 2002, published 2004):

Assays:
tumor cells = conditions: histologically diverse tumor cells; cited from earlier work
[1] = Aqueous solubility of CCI-779; format: physicochemical; conditions: water (aqueous)
Description: (§1) One obstacle towards the formulation of CCI-779 is its poor aqueous solubility (less than 1 μg/ml), which makes its bioavailability low.

[2] = Aqueous stability of CCI-779; format: physicochemical; conditions: cleavage of a lactone bond, forming ring opened seco-CCI-779
Description: as §1

human tumor xenografts = conditions: nude mice, diverse histological types; cited from earlier work

Q: With `CO[C@H]1C[C@@H]2CC[C@@H](C)[C@@](O)(O2)C(=O)C(=O)N2CCCC[C@H]2C(=O)O[C@H]([C@H](C)C[C@@H]2CC[C@@H](OC(=O)C(C)(CO)CO)[C@H](OC)C2)CC(=O)[C@H](C)/C=C(\C)[C@@H](O)[C@@H](OC)C(=O)[C@H](C)C[C@H](C)/C=C/C=C/C=C/1C` [CCI-779, rapamycin 42-ester with 3-hydroxy-2-(hydroxymethyl)-2-methylpropionic acid] as the molecule, how does the “inhibition of tumor cell growth in vitro” value (tumor cells) read?
A: inhibit the growth of a number of histologically diverse tumor cells

Q: And the solubility [1]?
A: < 1 µg/mL

Q: What about the aqueous stability [2] of the same molecule?
A: exhibits aqueous instability

Q: And the “activity against human tumor xenografts” value (human tumor xenografts)?
A: has activity against human tumor xenografts of diverse histological types
